Results: patent US20240207292A1, “BORONIC ACID COMPOUNDS, COMPOSITIONS AND METHODS” (Trustees of Tufts College, priority 2021, published 2024)

Assays:
[1] = target: recombinant human dipeptidyl peptidase IV (DPPIV) (Homo sapiens (Human), UniProt P27487); assay: In vitro assay dipeptidyl peptidase IV IC50 (Example 21); assay type: biochemical
[2] = Degradation in aqueous solution of pH about 3 during HPLC purification and lyophilization; conditions: during HPLC purification and subsequent lyophilization
[3] = Stability of 6555 with stabilizers over hours without AAPH (50 mM NH4OAc at RT or Ultrapura water at 40° C.); assay type: physicochemical
From the text: The effect of specified sulfur-containing compounds and other stabilizer compounds (including non-sulfur-containing stabilizer compounds) and mixtures of sulfur-containing compounds and non-sulfur-containing stabilizer compounds with the boronic acid compound 6555 (structure shown above) at various pH values.

[4] = target: recombinant human prolyl oligopeptidase (PREP) (Homo sapiens (Human), UniProt P48147); assay: In vitro assay prolyl oligopeptidase IC50 (Example 21); assay type: biochemical
[5] = target: recombinant human fibroblast activation protein (FAP) (Homo sapiens (Human), UniProt Q12884); assay: In vitro assay fibroblast activation protein IC50 (Example 21); assay type: biochemical
recombinant human fibroblast activation protein (FAP), sequence (Q12884 whole entry): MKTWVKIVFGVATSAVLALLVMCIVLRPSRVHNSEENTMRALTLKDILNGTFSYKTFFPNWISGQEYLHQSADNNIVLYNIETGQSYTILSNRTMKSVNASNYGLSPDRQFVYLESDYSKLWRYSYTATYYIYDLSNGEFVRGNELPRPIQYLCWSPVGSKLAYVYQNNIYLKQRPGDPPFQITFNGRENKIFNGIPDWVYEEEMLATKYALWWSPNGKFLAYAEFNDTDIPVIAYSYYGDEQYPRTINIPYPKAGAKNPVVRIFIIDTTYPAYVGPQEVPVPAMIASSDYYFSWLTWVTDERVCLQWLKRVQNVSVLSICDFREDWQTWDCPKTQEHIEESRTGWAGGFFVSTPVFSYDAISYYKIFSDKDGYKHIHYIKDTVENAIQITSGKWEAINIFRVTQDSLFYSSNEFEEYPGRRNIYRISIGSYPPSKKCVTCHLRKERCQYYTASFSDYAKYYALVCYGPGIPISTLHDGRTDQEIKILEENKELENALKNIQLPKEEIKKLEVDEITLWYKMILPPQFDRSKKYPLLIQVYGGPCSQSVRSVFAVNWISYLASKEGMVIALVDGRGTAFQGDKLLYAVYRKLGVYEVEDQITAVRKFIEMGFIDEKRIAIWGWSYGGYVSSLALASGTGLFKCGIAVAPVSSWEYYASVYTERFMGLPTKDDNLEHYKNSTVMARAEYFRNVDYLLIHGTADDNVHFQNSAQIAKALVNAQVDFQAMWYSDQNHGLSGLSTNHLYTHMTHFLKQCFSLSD

recombinant human prolyl oligopeptidase (PREP), sequence (P48147 whole entry): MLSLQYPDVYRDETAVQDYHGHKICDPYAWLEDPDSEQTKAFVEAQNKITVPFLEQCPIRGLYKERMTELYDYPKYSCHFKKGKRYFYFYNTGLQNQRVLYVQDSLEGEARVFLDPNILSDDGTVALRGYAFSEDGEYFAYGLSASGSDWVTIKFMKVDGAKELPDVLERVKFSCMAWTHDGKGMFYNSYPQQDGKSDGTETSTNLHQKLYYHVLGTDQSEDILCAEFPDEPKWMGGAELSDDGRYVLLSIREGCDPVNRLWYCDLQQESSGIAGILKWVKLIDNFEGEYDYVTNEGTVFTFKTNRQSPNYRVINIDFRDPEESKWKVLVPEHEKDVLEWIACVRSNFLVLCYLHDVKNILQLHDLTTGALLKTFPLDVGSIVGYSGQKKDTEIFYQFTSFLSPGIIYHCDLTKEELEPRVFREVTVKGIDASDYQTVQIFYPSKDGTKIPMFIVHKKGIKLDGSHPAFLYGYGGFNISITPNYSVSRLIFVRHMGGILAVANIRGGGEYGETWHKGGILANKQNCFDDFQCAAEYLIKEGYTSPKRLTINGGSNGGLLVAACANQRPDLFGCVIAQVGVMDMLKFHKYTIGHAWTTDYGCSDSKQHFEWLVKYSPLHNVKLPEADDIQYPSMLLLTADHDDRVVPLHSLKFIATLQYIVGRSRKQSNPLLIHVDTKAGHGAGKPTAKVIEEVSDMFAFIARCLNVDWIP
recombinant human dipeptidyl peptidase IV (DPPIV), sequence (P27487 whole entry): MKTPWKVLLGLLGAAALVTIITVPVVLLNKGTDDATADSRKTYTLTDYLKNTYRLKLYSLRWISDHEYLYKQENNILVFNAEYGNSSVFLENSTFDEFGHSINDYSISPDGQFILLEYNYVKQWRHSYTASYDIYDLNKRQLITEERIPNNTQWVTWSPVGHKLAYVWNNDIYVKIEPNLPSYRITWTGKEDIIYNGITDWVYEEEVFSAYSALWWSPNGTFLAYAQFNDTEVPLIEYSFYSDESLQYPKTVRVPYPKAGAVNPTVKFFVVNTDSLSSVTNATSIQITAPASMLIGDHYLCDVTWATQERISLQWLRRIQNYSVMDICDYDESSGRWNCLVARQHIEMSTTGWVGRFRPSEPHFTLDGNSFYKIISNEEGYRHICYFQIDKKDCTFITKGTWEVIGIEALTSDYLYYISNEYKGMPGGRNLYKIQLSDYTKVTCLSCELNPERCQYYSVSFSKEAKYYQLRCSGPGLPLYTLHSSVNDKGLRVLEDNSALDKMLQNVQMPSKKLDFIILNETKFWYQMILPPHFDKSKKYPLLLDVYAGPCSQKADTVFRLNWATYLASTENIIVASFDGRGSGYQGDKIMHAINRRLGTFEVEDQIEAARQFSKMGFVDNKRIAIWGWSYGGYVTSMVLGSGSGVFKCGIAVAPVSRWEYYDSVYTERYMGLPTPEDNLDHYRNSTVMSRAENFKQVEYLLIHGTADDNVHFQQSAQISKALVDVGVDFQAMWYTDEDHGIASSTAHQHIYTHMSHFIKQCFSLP

C[C@@H](NC(=O)c1ccc(CNC(=O)CN2CCN(CC(=O)O)CCN(CC(=O)O)CCN(CC(=O)O)CC2)cc1)C(=O)N1CCC[C@H]1B(O)O [compound 6555, DOTA-aminomethyl-Bz-D-Ala-boroPro]
IC50 [1]: > 100000 nM
degradation in aqueous solution [2]: did not observe any sign of degradation
6555 Remaining (%) ([3]; 50 mM NH4OAc, RT, 6 hr, (−) mode, no stabilizer, pH 5.4): 74.5%
6555 Remaining (%) ([3]; 50 mM NH4OAc, RT, 6 hr, (−) mode, sodium metabisulfite 5 mM, pH 5.1): 63.3%
6555 Remaining (%) ([3]; 50 mM NH4OAc, RT, 7 hr, (−) mode, sodium ascorbate 5 mM, sodium gentisate 2 mM, sodium metabisulfite 5 mM, disodium hydrosulfite 5 mM, pH 5.2): 77.4%
6555 Remaining (%) ([3]; 50 mM NH4OAc, RT, 7 hr, (−) mode, sodium metabisulfite 5 mM, disodium hydrosulfite 5 mM, pH 5.1): 66.9%
6555 Remaining (%) ([3]; 50 mM NH4OAc, RT, 8 hr, (−) mode, NAM 5 mM, sodium metabisulfite 5 mM, pH 4.9): 63.2%
6555 Remaining (%) ([3]; 50 mM NH4OAc, RT, 8 hr, (−) mode, sodium metabisulfite 25 mM, pH 4.2): 63.2%
6555 Remaining (%) ([3]; 50 mM NH4OAc, RT, 26 hr, (+) mode, no stabilizer, pH 5.4): 95.7%
6555 Remaining (%) ([3]; 50 mM NH4OAc, RT, 26 hr, (+) mode, sodium ascorbate 5 mM, sodium gentisate 2 mM, sodium metabisulfite 5 mM, disodium hydrosulfite 5 mM, pH 5.2): 96.7%
6555 Remaining (%) ([3]; 50 mM NH4OAc, RT, 31 hr, (−) mode, no stabilizer, pH 5.4): 82.2%
6555 Remaining (%) ([3]; 50 mM NH4OAc, RT, 31 hr, (−) mode, sodium ascorbate 5 mM, sodium gentisate 2 mM, sodium metabisulfite 5 mM, disodium hydrosulfite 5 mM, pH 5.2): 77.4%
6555 Remaining (%) ([3]; Ultrapura water, 40° C., 17 hr, (+) mode, no stabilizer, pH 5.2): 95.4%
6555 Remaining (%) ([3]; Ultrapura water, 40° C., 17 hr, (+) mode, sodium ascorbate 5 mM, sodium gentisate 2 mM, sodium metabisulfite 5 mM, disodium hydrosulfite 5 mM, pH 5): 96.1%
6555 Remaining (%) ([3]; Ultrapura water, 40° C., 18 hr, (+) mode, sodium ascorbate 5 mM, sodium gentisate 2 mM, NAM 5 mM, disodium hydrosulfite 5 mM, pH 5.0): 96.2%
6555 Remaining (%) ([3]; Ultrapura water, 40° C., 18 hr, (+) mode, sodium ascorbate 5 mM, sodium gentisate 2 mM, NAM 5 mM, sodium metabisulfite 5 mM, pH 5.1): 95.6%
6555 Remaining (%) ([3]; Ultrapura water, 40° C., 27 hr, (−) mode, sodium ascorbate 5 mM, sodium gentisate 2 mM, NAM 5 mM, disodium hydrosulfite 5 mM, pH 5.0): 85.3%
6555 Remaining (%) ([3]; Ultrapura water, 40° C., 27 hr, (−) mode, sodium ascorbate 5 mM, sodium gentisate 2 mM, NAM 5 mM, sodium metabisulfite 5 mM, pH 5.1): 92.8%
6555 Remaining (%) ([3]; Ultrapura water, 40° C., 28 hr, (−) mode, no stabilizer, pH 5.2): 83.7%
6555 Remaining (%) ([3]; Ultrapura water, 40° C., 28 hr, (−) mode, sodium ascorbate 5 mM, sodium gentisate 2 mM, sodium metabisulfite 5 mM, disodium hydrosulfite 5 mM, pH 5.0): 82.9%
6555 Remain (%) ([3]; mM: ascorbate 0, gentisate 0, NAM 0, metabisulfite 0, hydrosulfite 0, pH 5.2, 17 hrs, SID 90754): 95.4%
6555 Remain (%) ([3]; mM: ascorbate 0, gentisate 0, NAM 0, metabisulfite 0, hydrosulfite 0, pH 5.2, 28 hrs, SID 90768): 83.7%
6555 Remain (%) ([3]; mM: ascorbate 0, gentisate 0, NAM 0, metabisulfite 0, hydrosulfite 0, pH 5.4, 6 hrs, SID 90779): 74.5%
6555 Remain (%) ([3]; mM: ascorbate 0, gentisate 0, NAM 0, metabisulfite 0, hydrosulfite 0, pH 5.4, 26 hrs, SID 90844): 95.7%
6555 Remain (%) ([3]; mM: ascorbate 0, gentisate 0, NAM 0, metabisulfite 0, hydrosulfite 0, pH 5.4, 31 hrs, SID 90853): 82.2%
6555 Remain (%) ([3]; mM: ascorbate 0, gentisate 0, NAM 0, metabisulfite 5, hydrosulfite 0, pH 4.9, 8 hrs, SID 90787): 63.2%
6555 Remain (%) ([3]; mM: ascorbate 0, gentisate 0, NAM 0, metabisulfite 5, hydrosulfite 0, pH 5.1, 6 hrs, SID 90780): 63.3%
6555 Remain (%) ([3]; mM: ascorbate 0, gentisate 0, NAM 0, metabisulfite 5, hydrosulfite 5, pH 5.1, 7 hrs, SID 90783): 66.9%
6555 Remain (%) ([3]; mM: ascorbate 0, gentisate 0, NAM 0, metabisulfite 25, hydrosulfite 0, pH 4.2, 8 hrs, SID 90790): 63.2%
6555 Remain (%) ([3]; mM: ascorbate 5, gentisate 2, NAM 0, metabisulfite 5, hydrosulfite 5, pH 5, 17 hrs, SID 90756): 96.1%
6555 Remain (%) ([3]; mM: ascorbate 5, gentisate 2, NAM 0, metabisulfite 5, hydrosulfite 5, pH 5, 28 hrs, SID 90772): 82.9%
6555 Remain (%) ([3]; mM: ascorbate 5, gentisate 2, NAM 0, metabisulfite 5, hydrosulfite 5, pH 5.2, 7 hrs, SID 90786): 77.4%
6555 Remain (%) ([3]; mM: ascorbate 5, gentisate 2, NAM 0, metabisulfite 5, hydrosulfite 5, pH 5.2, 26 hrs, SID 90845): 96.7%
6555 Remain (%) ([3]; mM: ascorbate 5, gentisate 2, NAM 0, metabisulfite 5, hydrosulfite 5, pH 5.2, 31 hrs, SID 90854): 77.4%
6555 Remain (%) ([3]; mM: ascorbate 5, gentisate 2, NAM 5, metabisulfite 0, hydrosulfite 5, pH 5.0, 18 hrs, SID 90755): 96.2%
6555 Remain (%) ([3]; mM: ascorbate 5, gentisate 2, NAM 5, metabisulfite 0, hydrosulfite 5, pH 5.0, 27 hrs, SID 90771): 85.3%
6555 Remain (%) ([3]; mM: ascorbate 5, gentisate 2, NAM 5, metabisulfite 5, hydrosulfite 0, pH 5.1, 18 hrs, SID 90753): 95.6%
6555 Remain (%) ([3]; mM: ascorbate 5, gentisate 2, NAM 5, metabisulfite 5, hydrosulfite 0, pH 5.1, 27 hrs, SID 90769): 92.8%
IC50 [4]: 870 nM
IC50 [5]: 3.8 nM
